Consider 16 molecules from patent US10562857B2 (AFASCI, Inc., priority 2015, dated 2020).

For assay [1], the system named is SNI mice. Put plainly: Spared nerve injury (SNI) mice, Hargreaves thermal test. It is filed as in vivo, mouse. The note with it: 30 mg/kg, 0.2 mL I.P. The protocol:
FIG. 1A. Examples of compounds that mitigate neuropathic pain induced by Spared Nerve Injury (SNI) in mice. The withdrawal latencies of the mice's left hindpaws (injured site) in response to thermal stimulation (Hargreaves test). Each SNI mouse received either EXAMPLE (EX)-11, -14, -38, -62, or 113, or gabapentin, as benchmark (each 30 mg/kg, 0.2 mL I.P.), or vehicle (0.2 mL I.P. 2% DMSO in 0.5% Hydroxyl Propyl Cellulose, HPC). […] 40 seconds were cut off in order to prevent tissue damage (n=8 per group).
(§1) T-channel specific inhibitors are not yet available for clinical treatment of neuropathic pain. The spared nerve injury (SNI) model, one of the reliable neuropathic pain models in mice and rats (Decosterd and Woolf, 2000), was used to assess the effects of the representative compounds.
(§2) Of the three branches of the sciatic nerve, the tibial and common peroneal nerves of the mice (C57BL/6, male, 25-30 g, Harlan) were cut and ligated, leaving the sural nerve intact. Pre-surgery baselines (100%) of the thermal and mechanical pain thresholds of the ipsilateral hind paws were measured using the Hargreaves thermal stimulator (Hargreaves et al., 1988) and von Frey hair monofilaments (up-down method, Chaplan et al., 1994), respectively. Mice underwent the SNI surgery on their left hind leg. Two weeks post-surgery, the thermal thresholds of each mouse were reassessed.
(§3) EXAMPLE-11, 14, 38, 62, or 113 (FIGS. 1A and B) and EXAMPLE-12, 16, 19, 39, or 44 (FIGS. 2A and B) were administered at 30 mg/kg (0.2 mL I.P.) in a vehicle (pure DMSO to dissolve the powder first and then add 0.5% Hydroxyl Propyl Cellulose, HPC, to contain 2% DMSO in injection solution). All drug solutions used the same vehicle, unless specified otherwise.

A further assay deals with T1, Cav3.2 channel (Homo sapiens, UniProt O95180).
T1 construct: expressed in transfected cells; host or cells: HEK-293, tetracycline inducible expression system (Invitrogen)
T1 sequence (O95180 whole entry): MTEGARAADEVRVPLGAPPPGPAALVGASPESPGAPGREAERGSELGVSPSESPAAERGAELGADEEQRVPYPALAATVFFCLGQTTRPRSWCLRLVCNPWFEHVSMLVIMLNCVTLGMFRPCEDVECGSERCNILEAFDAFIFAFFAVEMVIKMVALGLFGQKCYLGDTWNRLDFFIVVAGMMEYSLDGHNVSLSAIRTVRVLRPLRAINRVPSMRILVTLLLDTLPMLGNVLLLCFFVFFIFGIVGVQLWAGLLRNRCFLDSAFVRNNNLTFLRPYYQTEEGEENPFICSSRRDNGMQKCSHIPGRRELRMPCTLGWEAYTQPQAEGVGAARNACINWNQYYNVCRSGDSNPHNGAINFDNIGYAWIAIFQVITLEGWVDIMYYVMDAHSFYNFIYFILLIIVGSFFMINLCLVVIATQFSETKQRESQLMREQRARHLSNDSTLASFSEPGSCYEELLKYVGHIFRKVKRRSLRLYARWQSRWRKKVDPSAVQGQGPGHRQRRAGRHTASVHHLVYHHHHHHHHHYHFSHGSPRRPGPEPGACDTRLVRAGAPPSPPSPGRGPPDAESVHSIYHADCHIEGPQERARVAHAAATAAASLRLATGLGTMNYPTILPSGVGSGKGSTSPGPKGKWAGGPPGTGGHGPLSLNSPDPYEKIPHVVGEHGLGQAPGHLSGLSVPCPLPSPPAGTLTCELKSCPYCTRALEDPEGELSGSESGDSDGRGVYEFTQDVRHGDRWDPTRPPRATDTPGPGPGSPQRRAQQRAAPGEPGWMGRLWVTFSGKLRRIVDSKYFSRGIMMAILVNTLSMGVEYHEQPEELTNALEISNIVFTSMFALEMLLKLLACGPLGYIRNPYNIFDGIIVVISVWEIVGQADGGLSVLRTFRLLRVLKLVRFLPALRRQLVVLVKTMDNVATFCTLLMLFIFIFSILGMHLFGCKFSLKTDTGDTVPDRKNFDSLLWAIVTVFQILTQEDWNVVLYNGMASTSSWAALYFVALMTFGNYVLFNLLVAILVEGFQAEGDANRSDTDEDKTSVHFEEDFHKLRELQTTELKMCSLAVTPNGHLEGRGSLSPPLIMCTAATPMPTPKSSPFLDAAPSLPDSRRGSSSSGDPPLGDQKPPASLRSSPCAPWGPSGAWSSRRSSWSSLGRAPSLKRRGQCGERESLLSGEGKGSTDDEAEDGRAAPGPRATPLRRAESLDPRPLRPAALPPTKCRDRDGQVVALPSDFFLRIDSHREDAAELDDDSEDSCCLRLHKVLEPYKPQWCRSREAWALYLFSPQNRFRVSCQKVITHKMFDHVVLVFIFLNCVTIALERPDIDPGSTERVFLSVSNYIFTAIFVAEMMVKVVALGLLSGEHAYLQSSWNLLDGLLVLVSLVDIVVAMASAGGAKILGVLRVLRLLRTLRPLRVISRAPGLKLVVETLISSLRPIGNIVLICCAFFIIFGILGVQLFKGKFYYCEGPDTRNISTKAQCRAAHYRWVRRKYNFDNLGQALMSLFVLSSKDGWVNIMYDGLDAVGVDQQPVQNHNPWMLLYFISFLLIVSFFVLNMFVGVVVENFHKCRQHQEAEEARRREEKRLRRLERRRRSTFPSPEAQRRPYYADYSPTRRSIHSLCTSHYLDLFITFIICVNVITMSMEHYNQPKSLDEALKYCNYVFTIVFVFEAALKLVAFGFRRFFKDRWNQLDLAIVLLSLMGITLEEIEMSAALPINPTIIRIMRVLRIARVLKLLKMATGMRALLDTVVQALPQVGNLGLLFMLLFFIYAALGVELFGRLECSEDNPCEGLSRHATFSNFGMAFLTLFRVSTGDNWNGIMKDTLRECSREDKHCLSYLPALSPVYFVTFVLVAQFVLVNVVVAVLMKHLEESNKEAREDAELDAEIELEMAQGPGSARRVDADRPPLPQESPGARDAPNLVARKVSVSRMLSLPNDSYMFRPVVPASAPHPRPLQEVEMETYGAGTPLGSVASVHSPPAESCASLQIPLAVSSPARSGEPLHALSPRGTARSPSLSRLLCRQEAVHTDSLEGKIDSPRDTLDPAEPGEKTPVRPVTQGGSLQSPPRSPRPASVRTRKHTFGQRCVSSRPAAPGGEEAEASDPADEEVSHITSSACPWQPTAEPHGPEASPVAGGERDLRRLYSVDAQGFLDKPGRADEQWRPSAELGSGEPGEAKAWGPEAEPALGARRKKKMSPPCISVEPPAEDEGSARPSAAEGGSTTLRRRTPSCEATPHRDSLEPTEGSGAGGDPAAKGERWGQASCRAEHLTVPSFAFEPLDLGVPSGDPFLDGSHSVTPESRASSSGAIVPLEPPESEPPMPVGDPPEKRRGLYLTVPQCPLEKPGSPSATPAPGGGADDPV
Put plainly: Whole-cell patch clamp of T-type Cav3.2 channel expressed in HEK293 cells. It is filed as cell-based. The settings on record: for IC50: Table 1, tested at at least 4 concentrations, read-out: IC50; for inhibition at 1 µM: HEK293, Table 1 primary screening. (Patch clamp records ionic current or voltage across a cell membrane.)

The test system of assay [2] is SNI mice. In words: Spared nerve injury (SNI) mice, von Frey monofilament test. It is filed as in vivo, mouse. The note with it: 30 mg/kg, 0.2 mL I.P.
Description: FIG. 1B. Mechanical pain threshold assessment (using von Frey monofilament test) of the same cohort of SNI mice's left hindpaws.
as §1, §2, §3

In the next assay the test system is CFA mice. Put plainly: Complete Freund's Adjuvant (CFA)-induced inflammatory pain in mice, von Frey test. It is filed as in vivo, mouse. How it is done: FIG. 7. Effects of EXAMPLE-96, 107 or 115 (each 30 mg/kg, I.P.) or gabapentin (as a benchmark, 100 mg/kg, I.P) on Complete Freund's Adjuvant (CFA)-induced inflammation in male, mice (C57BL/6, ˜2 months old; n=8 mice per group). Mechanical pain threshold assessment of CFA mice's left hindpaws were measured using von Frey monofilament test at 0.5, 1, 2, 4, and 6 hours after treatment.
Because knockout or antisense knockdown of the Cav3.2 isoform produces analgesic effects in neuropathic pain as well as in inflammatory pain in mice (Choi et al., 2007), we used the Complete Freund adjuvant (CFA)-inflammatory pain in mice to investigate the drug effects. EXAMPLE-96, -115, and -107 (each at 30 mg/kg, I.P.) and a reference gabapentin (100 mg/kg, I.P.) was individually administered to mice that had CFA-induced inflammation on their left hindpaws.

Each structure is given as a SMILES string. Entries after “also recorded” stand apart in the source; their conditions may differ.

As to `CC(C)CN1CCC2(CC1)CC2NC(=O)c1cc(Cl)cc(Cl)c1` (stereo not drawn) [Example 11, 3,5-Dichloro-N-(6-isobutyl-6-azaspiro[2.5]octan-1-yl)benzamide], the “left hindpaw withdrawal latency to thermal stimulation (hyperalgesia)” value (shortened to “left hindpaw withdrawal latency”) with SNI mice [1] was “produced analgesic effects; also recorded: reduced hyperalgesia”. The IC50 at Cav3.2 channel came to 420 nM. Besides, the “mechanical pain threshold of left hindpaw (allodynia)” value in the assay on SNI mice [2] is “produced analgesic effects; also recorded: reduced allodynia”.
`CC(C)(C)CCN1CCC2(CC1)CC2NC(=O)c1cc(Cl)cc(Cl)c1` (stereo not drawn) [Example 12, 3,5-Dichloro-N-(6-(3,3-dimethylbutyl)-6-azaspiro[2.5]octan-1-yl)benzamide]: the “left hindpaw withdrawal latency” value in the assay on SNI mice [1] was “produced analgesic effects; also recorded: reduced hyperalgesia”. Besides, the IC50 at Cav3.2 channel was 50 nM. In the assay on SNI mice [2], the “mechanical pain threshold of left hindpaw (allodynia)” value is reported as “produced analgesic effects; also recorded: reduced allodynia”.
The like results for `CC(C)(C)NC(=O)CN1CCC2(CC1)CC2NC(=O)c1cc(Cl)cc(Cl)c1` (stereo not drawn) [Example 14, N-(6-(2-(tert-Butylamino)-2-oxoethyl)-6-azaspiro[2.5]octan-1-yl)-3,5-dichlorobenzamide] were, in that order, “produced analgesic effects; also recorded: reduced hyperalgesia”, 30 nM and “produced analgesic effects; also recorded: reduced allodynia”.
Consider `CC(C)(C)NC(=O)CN1CCC2(CC1)CC2NC(=O)c1cc(C(F)(F)F)cc(C(F)(F)F)c1` (stereo not drawn) [Example 16, N-(6-(2-(tert-Butylamino)-2-oxoethyl)-6-azaspiro[2.5]octan-1-yl)-3,5-bis(trifluoromethyl)benzamide], for which, in the assay on SNI mice [1], the “left hindpaw withdrawal latency” value is recorded as “produced analgesic effects; also recorded: reduced hyperalgesia”. Further, the IC50 on Cav3.2 channel was 120 nM. For the same molecule, the “mechanical pain threshold of left hindpaw (allodynia)” value in the assay with SNI mice [2] was “produced analgesic effects; also recorded: reduced allodynia”.
Regarding `CC(C)(C)CCN1CCC2(CC1)CC2NC(=O)c1cc(C(F)(F)F)cc(C(F)(F)F)c1` (stereo not drawn) [Example 19, N-(6-(3,3-Dimethylbutyl)-6-azaspiro[2.5]octan-1-yl)-3,5-bis(trifluoromethyl)benzamide], the “left hindpaw withdrawal latency” value in the assay on SNI mice [1] was “produced analgesic effects; also recorded: reduced hyperalgesia”. In addition, at Cav3.2 channel, the IC50 is 30 nM. The “mechanical pain threshold of left hindpaw (allodynia)” value in the assay with SNI mice [2] is “produced analgesic effects; also recorded: reduced allodynia”.
With `CC(C)(C)OCCN1CCC2(CC1)CC2NC(=O)c1cc(Cl)cc(Cl)c1` (stereo not drawn) [Example 38, N-(6-(2-(tert-Butoxy)ethyl)-6-azaspiro[2.5]octan-1-yl)-3,5-dichlorobenzamide], the “left hindpaw withdrawal latency” value in the assay with SNI mice [1] was “produced analgesic effects; also recorded: reduced hyperalgesia”. In addition, the IC50 on Cav3.2 channel worked out at 40 nM. Further, the “mechanical pain threshold of left hindpaw (allodynia)” value with SNI mice [2] was “produced analgesic effects; also recorded: reduced allodynia”.
`O=C(NC1CC12CCN(CC(c1ccccc1)c1ccccc1)CC2)c1cc(Cl)cc(Cl)c1` (stereo not drawn) [Example 39, 3,5-Dichloro-N-(6-(2,2-diphenylethyl)-6-azaspiro[2.5]octan-1-yl)benzamide]: in the assay with SNI mice [1], the “left hindpaw withdrawal latency” value is on record as “produced analgesic effects; also recorded: reduced hyperalgesia”. Also, the IC50 on Cav3.2 channel is 60 nM. In addition, the “mechanical pain threshold of left hindpaw (allodynia)” value in the assay on SNI mice [2] is reported as “produced analgesic effects; also recorded: reduced allodynia”.
Turning to `COc1ccc(CCN2CCC3(CC2)CC3NC(=O)c2cc(Cl)cc(Cl)c2)cc1` (stereo not drawn) [Example 44, 3,5-Dichloro-N-(6-(4-methoxyphenethyl)-6-azaspiro[2.5]octan-1-yl)benzamide], the “left hindpaw withdrawal latency” value in the assay with SNI mice [1] is listed as “produced analgesic effects; also recorded: reduced hyperalgesia”. Further, the IC50 on Cav3.2 channel was 100 nM. Besides, the “mechanical pain threshold of left hindpaw (allodynia)” value with SNI mice [2] is “produced analgesic effects; also recorded: reduced allodynia”.
Regarding `O=C(NC1CCC12CCN(CCc1ccccc1)CC2)c1ccccc1` (stereo not drawn) [Example 62], the “left hindpaw withdrawal latency” value in the assay on SNI mice [1] is “produced analgesic effects; also recorded: reduced hyperalgesia”. Besides, the inhibition at 1 µM against Cav3.2 channel is 68%. Also, the “mechanical pain threshold of left hindpaw (allodynia)” value with SNI mice [2] is on record as “produced analgesic effects; also recorded: reduced allodynia”.
Turning to `CC(C)(C)NC(=O)CN1CCC(CNC(=O)c2ccccc2)CC1` [Example 96, N-((1-(2-(tert-Butylamino)-2-oxoethyl)piperidin-4-yl)methyl)benzamide], testing at 1 µM on Cav3.2 channel gave an inhibition of 40%. The “mechanical pain threshold, CFA-induced inflammation” value in the assay on CFA mice (30 mg/kg I.P.) is recorded as “showed an analgesic effect in mechanical pain”.
For `CC(C)(C)NC(=O)CN1CCC2(CC[C@H]2NC(=O)c2cc(Cl)cc(Cl)c2)CC1` [Example 113, (R)—N-(7-(2-(tert-Butylamino)-2-oxoethyl)-7-azaspiro[3.5]nonan-1-yl)-3,5-dichlorobenzamide], in the assay with SNI mice [1], the “left hindpaw withdrawal latency” value is recorded as “produced analgesic effects; also recorded: reduced hyperalgesia”. Moreover, the IC50 on Cav3.2 channel worked out at 640 nM. Also, the “mechanical pain threshold of left hindpaw (allodynia)” value with SNI mice [2] is on record as “produced analgesic effects; also recorded: reduced allodynia”.
Regarding `Cc1cc(C(=O)Nc2nnc(-c3ccccc3F)o2)no1` [Example 126, N-(5-(2-Fluorophenyl)-1,3,4-oxadiazol-2-yl)-5-methylisoxazole-3-carboxamide], on Cav3.2 channel, the inhibition at 1 µM was 5.9%.
On to `O=C(Nc1nnc(-c2ccccc2F)o1)c1cnccn1` [Example 127, N-(5-(2-Fluorophenyl)-1,3,4-oxadiazol-2-yl)pyrazine-2-carboxamide], for which the inhibition at 1 µM on Cav3.2 channel stood at 8.5%.
For the molecule `CC(C)(C)CCN1CCC2(CC1)CC2NC(=O)c1cc(C(F)(F)F)ccc1Cl` (stereo not drawn) [Example 142, 2-Chloro-N-(6-(3,3-dimethylbutyl)-6-azaspiro[2.5]octan-1-yl)-5-(trifluoromethyl)benzamide], the IC50 at Cav3.2 channel stood at 90 nM.
Take `CC(C)(C)NC(=O)CN1CCC2(CC1)CC2NC(=O)C12CC3CC(CC(C3)C1)C2` (stereo not drawn) [Example 143, N-(6-(2-(tert-Butylamino)-2-oxoethyl)-6-azaspiro[2.5]octan-1-yl)adamantane-1-carboxamide]: at Cav3.2 channel, the IC50 stood at 290 nM.
On to `NCC1(CC(=O)O)CCCCC1` [gabapentin, reference compound], for which the “left hindpaw withdrawal latency” value in the assay on SNI mice [1] is “reduced hyperalgesia”. Further, the “mechanical pain threshold, CFA-induced inflammation” value in the assay with CFA mice (100 mg/kg I.P.) is “showed an analgesic effect in mechanical pain”. Besides, in the assay with SNI mice [2], the “mechanical pain threshold of left hindpaw (allodynia)” value is “reduced allodynia”.

For orientation: IC50 means the midpoint of a concentration-inhibition curve. For orientation: inhibition means the relative decrease from the control value, in per cent. Low values mean a weak effect, high ones a strong effect.
